This note sets out measurements from ChEMBL document CHEMBL1201862, “PubChem BioAssay data set” (2004).

Activity calls are given as the source filed them. Rule as the data show it, for most assays here: actives have a measured EC50 and inactives only a lower limit.
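For AC50 in this document: cells exposed to compound for roughly 70 hours or longer before luminescence read.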

The test system of the first experiment is H4. Description: Luminescence Cell-Based Dose Response HTS to Identify Activators of 5'UTR Stem-Loop Driven Prion Protein mRNA Translation in H4 Neuroglioblastoma Cells. [Related pubchem assays: 1829 (Project Summary), 1814 (Primary HTS)]. Type of experiment: functional. To be noted: Homo sapiens.
As for `COc1ccc(OCc2cc(C(=O)N(C)Cc3cc(C)no3)no2)c(Cl)c1`, the EC50 (usually the concentration that produces a half-maximal response) is 10.1 µM (active).
On the same count and under the same terms, for `CNC(C)C#Cc1ccc2sc3cc(OC)c(OC)cc3c(=O)c2c1` (stereo not given) the value was > 120 µM (not active); for `O=c1c2c(-c3ccccc3)ccnc2[nH]n1-c1ccccc1`, > 120 µM (not active).
The same measure, in the same setting: under `Cc1ccc(OC(=O)NC2CCS(=O)(=O)C2)cc1C` (stereo not given) stands > 120 µM (not active); under `O=C(COc1ccc(Br)cc1Br)NC(=O)NC1CCCC1`, > 120 µM (not active).
Take `Cc1ccccc1C(=O)ON=C(N)c1cccc([N+](=O)[O-])c1`: the EC50 is 27.5 µM (active).
Same read-out and setting: for `Nc1nc(CSCc2ccccc2)nc(N2CCOCC2)n1` the value was 50.7 µM (active); for `CC1CCC(NC(=O)Cn2c(=O)[nH]c3ccsc3c2=O)CC1` (stereo not given), 90.1 µM (active); for `C=CCn1c(SCC(N)=O)nnc1-c1cc2c(s1)CCC(CC)C2` (stereo not given), 5.64 µM (active).
`COc1cccc(Oc2nnnn2-c2ccccc2)c1`: the EC50 was > 120 µM (not active).
The same measure, in the same setting: for `Cc1ccc(C(=O)CCC2CCCCC2=O)cc1` (stereo not given) the value was 28.4 µM (active); for `CCOc1ccc2nc(N3CCCC(C(=O)NCC4CCCO4)C3)sc2c1` (stereo not given), 17.2 µM (active).

Test system in a further experiment: not listed separately
Description: Luminescence Cell-Based Dose Response HTS to Identify Activators of Luciferase Translation or Activity in H4 […] Cells. [Related pubchem assays: 1829 (Project Summary), 1814 (Primary HTS)]. Type of experiment: functional.
Settings: not given
Turning to `COc1ccc(OCc2cc(C(=O)N(C)Cc3cc(C)no3)no2)c(Cl)c1`, the EC50 was 65.1 µM (active).
Still for that read-out and setting: under `CNC(C)C#Cc1ccc2sc3cc(OC)c(OC)cc3c(=O)c2c1` (stereo not given) stands 15.3 µM (active).
Same read-out and setting: under `O=c1c2c(-c3ccccc3)ccnc2[nH]n1-c1ccccc1` stands 10.8 µM (active); under `Cc1ccc(OC(=O)NC2CCS(=O)(=O)C2)cc1C` (stereo not given), > 120 µM (not active).
As to `O=C(COc1ccc(Br)cc1Br)NC(=O)NC1CCCC1`, the EC50 was 33.4 µM (active).
Still for that read-out and setting: under `Cc1ccccc1C(=O)ON=C(N)c1cccc([N+](=O)[O-])c1` stands 17 µM (active); under `Nc1nc(CSCc2ccccc2)nc(N2CCOCC2)n1`, 6.28 µM (active).
On to `CC1CCC(NC(=O)Cn2c(=O)[nH]c3ccsc3c2=O)CC1` (stereo not given), for which the EC50 is 29.3 µM (active).
Still for that read-out and setting: for `C=CCn1c(SCC(N)=O)nnc1-c1cc2c(s1)CCC(CC)C2` (stereo not given) the value was 27.7 µM (active); for `COc1cccc(Oc2nnnn2-c2ccccc2)c1`, 54.7 µM (active).
As to `Cc1ccc(C(=O)CCC2CCCCC2=O)cc1` (stereo not given), the EC50 was 36.7 µM (active).
Same read-out and setting: under `CCOc1ccc2nc(N3CCCC(C(=O)NCC4CCCO4)C3)sc2c1` (stereo not given) stands 17.1 µM (active).

Test system in the next experiment: not listed separately
Description: Luminescence Cell-Based Dose Confirmation HTS to Identify Activators of 5'UTR Stem-Loop Driven Alpha-Synuclein mRNA Translation in H4 Neuroglioblastoma Cells. [Related pubchem assays: 1829 (Project Summary), 1814 (Primary HTS)]. The experiment is classed as functional.
Settings: not given
As for `COc1ccc(OCc2cc(C(=O)N(C)Cc3cc(C)no3)no2)c(Cl)c1`, the EC50 was 1.42 µM (active).
With `CNC(C)C#Cc1ccc2sc3cc(OC)c(OC)cc3c(=O)c2c1` (stereo not given), the EC50 was 22.3 µM (active).
Still for that read-out and setting: for `O=c1c2c(-c3ccccc3)ccnc2[nH]n1-c1ccccc1` the value was > 120 µM (not active).
The same measure, in the same setting: under `Cc1ccc(OC(=O)NC2CCS(=O)(=O)C2)cc1C` (stereo not given) stands > 120 µM (not active).
Regarding `O=C(COc1ccc(Br)cc1Br)NC(=O)NC1CCCC1`, the EC50 is 8.14 µM (active).
On the same count and under the same terms, under `Cc1ccccc1C(=O)ON=C(N)c1cccc([N+](=O)[O-])c1` stands 13.8 µM (active); under `Nc1nc(CSCc2ccccc2)nc(N2CCOCC2)n1`, > 120 µM (not active).
For the molecule `CC1CCC(NC(=O)Cn2c(=O)[nH]c3ccsc3c2=O)CC1` (stereo not given), the EC50 is 12.4 µM (active).
On the same count and under the same terms, under `C=CCn1c(SCC(N)=O)nnc1-c1cc2c(s1)CCC(CC)C2` (stereo not given) stands 3 µM (active); under `COc1cccc(Oc2nnnn2-c2ccccc2)c1`, 0.44 µM (active).
In the case of `Cc1ccc(C(=O)CCC2CCCCC2=O)cc1` (stereo not given), the EC50 was 13.2 µM (active).
In the case of `CCOc1ccc2nc(N3CCCC(C(=O)NCC4CCCO4)C3)sc2c1` (stereo not given), the EC50 is 17.5 µM (active).

Test system in the next experiment: not listed separately
Description: Luminescence Cell-Based Dose Retest to Confirm Inhibitors of Cancer Stem Cells. [Related pubchem assays (depositor defined):AID2717, AID2721]. Type of experiment: functional. To be noted: Homo sapiens.
In the case of `CCN1C(=O)/C(=C\N2CCN(c3cccc(Cl)c3)CC2)SC1=S`, the AC50 (commonly the concentration at which the activity in the assay is half-maximal) is 1.77 µM (active).
As for `Oc1ccc(Br)cc1-c1cc(-c2ccccc2)[nH]n1`, the AC50 is 4.95 µM (active).
For `O=C(Nc1ccccc1)C1=C[C@@H](c2csc3ccccc23)C[C@@H](OCc2ccc(CO)cc2)O1`, the AC50 is 2.65 µM (active).
Still for that read-out and setting: for `CC1CCCC(N=C(S)Nc2ccc(SC(F)F)cc2)C1C` (stereo not given) the value was 5.61 µM (active); for `CCCC(C)c1nnc(NC(=O)COc2ccc3c(c2)OCO3)s1` (stereo not given), 5.69 µM (active); for `COc1ccccc1NC(=O)c1ccc(S(=O)(=O)N2CCCC(C)C2)cc1` (stereo not given), > 195 µM (inactive).
On to `COc1ccc(/C=N/N(c2ccccc2)c2ccccc2)cc1O`, for which the AC50 is 6.76 µM (active).
On the same count and under the same terms, under `C/C(=N\NC(=O)c1nnn(-c2nonc2N)c1CN1CCCCC1)c1ccccc1O` stands 3.42 µM (active).

Another experiment has as its target T1, Streptokinase A (Streptococcus pyogenes serotype M1, UniProt P10520).
T1 sequence (P10520 whole entry): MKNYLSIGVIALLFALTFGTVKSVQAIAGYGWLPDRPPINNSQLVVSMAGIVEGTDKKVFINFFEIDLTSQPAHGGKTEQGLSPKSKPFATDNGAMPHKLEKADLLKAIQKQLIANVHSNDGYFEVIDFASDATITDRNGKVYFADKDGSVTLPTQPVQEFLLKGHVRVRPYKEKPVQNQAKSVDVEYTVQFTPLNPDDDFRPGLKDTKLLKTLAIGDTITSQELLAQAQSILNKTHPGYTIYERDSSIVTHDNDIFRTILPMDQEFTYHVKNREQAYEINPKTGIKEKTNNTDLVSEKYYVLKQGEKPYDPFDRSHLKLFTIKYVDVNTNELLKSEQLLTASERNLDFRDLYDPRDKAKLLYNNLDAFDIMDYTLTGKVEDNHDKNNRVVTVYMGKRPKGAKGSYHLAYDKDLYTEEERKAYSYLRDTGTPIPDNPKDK
Description: S. pyogenes streptokinase expression inhibitors, potency, dose response, plasminogen activation absorbance, OD405 (AID 1914).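 Also: secreted streptokinase activity via plasminogen activation per viability signal from cell pellet.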 Type of experiment: functional, Streptococcus pyogenes M1 GAS.
Settings: not given
On to `Cc1ccc2nc(Nc3nc(=O)cc(-c4ccccc4)[nH]3)nc(C)c2c1`, for which the EC50 is > 150 µM (not active).
